Experimental data published in ChEMBL document CHEMBL1158174, “The antioxidant activity of 2-(4(or 2)-hydroxyl-5-chloride-1,3-benzene-di-sulfanimide)-chitosan” (Eur J Med Chem, 2008).

How the values were obtained:
[1] = Antioxidant activity assessed as hydroxyl radical scavenging activity; type: functional
[2] = Antioxidant activity assessed as superoxide radical scavenging activity at 0.40 mg/mL; type: functional

SMILES: O=C1O[C@H]([C@@H](O)CO)C(O)=C1O [ASCORBIC ACID]
- IC50 [1]: > 711 µg/mL
- Activity [2]: 33.9%
